# Tested on: 3T3-L1 adipocytes
# Assay: Insulin stimulated glucose uptake (ISGU), [3H]2-deoxyglucose incorporation in differentiated adipocytes
# Format: cell-based, Murine
# Conditions: 3 days incubation; for increase in glucose uptake in combination with CLA over CLA alone: compound A in combination with CLA, 1 nM insulin, significantly higher than CLA alone, P<0.05 Students T-test, FIG. 2
# Description: Murine (3T3-L1 cells; ATCC CL-173) were seeded into multi-well plates and incubated in growth medium (DMEM supplemented with 10% FCS, 2 mM L-glutamine, 100 iu/ml penicillin and 100 μg/ml streptomycin) at 37° C./5% CO2 until 2 days post-confluence (day 0). Differentiation was carried out approximately according to Iwata et al (Diabetes 2001 50: 1083-1092). Briefly, differentiation was induced by changing to growth medium containing 3-isobutyl-1-methylxanthine (0.5 mM), dexamethasone (0.25 μM) and 1 μM insulin for 3 days, and then growth medium containing 0.8 μM insulin for another 3 days. Finally cells were retained in serum free growth medium until ready for experimentation, typically cells were used between days 6-9.
# Pine nut oil (PNO) and palm kernel oil (PKO) fatty acids were prepared by saponification of pine nut oil or palm kernel oil. PNO contains high levels of PUFAs, in particular high levels of pinolenic acid. PKO has high levels of medium chain fatty acids (C8-12). All samples were prepared as 1 mg/ml stocks in ethanol and diluted in media accordingly with the following exceptions. IGF-1 was prepared by initially dissolving in […], followed by the addition of 400 μl PBS supplemented with 1 mg/ml BSA. This was diluted with media to the correct concentration. Ascorbic acid, sodium vanadate and aspartame were made up in DMEM.
# Differentiated adipocytes were incubated for a period of 3 days in DMEM (containing 2 mM L-glutamine, 100 iu/ml penicillin, 100 μg/ml streptomycin, 1 nM insulin and 10% FCS) supplemented with or without CLA and/or compound As. The cells were then washed three times with DMEM (containing 1 mM deoxyglucose). Insulin stimulated glucose uptake was carried out according to Iwata et al (Diabetes 2001 50: 1083-1092). Briefly, cells were stimulated with 1 nM insulin in Krebs Ringer Phosphate (KRP) and HEPES buffer [10 mM HEPES, 131.2 mM NaCl, 4.7 mM KCl, 2.5 mM CaCl2, 1.2 mM MgSO4, 2.5 mM sodium phosphate buffer, pH 7.4] with 1% BSA at 37° C. […] Radioactive incorporation was measured by scintillation counting of 100 μl of each cell lysate. […]
Molecule,increase in glucose uptake in combination with CLA over CLA alone [%],"insulin stimulated glucose uptake (ISGU), effect of CLA alone (CLA fatty acids at 10 or 50 μg/ml, compared with control differentiated adipocytes, radiolabel incorporation (3H-DPM), FIG. 1)"
"O=C1O[C@H]([C@@H](O)CO)C(O)=C1O [Vit C, Ascorbic acid]",20,–
Conjugated linoleic acid [CLA],–,reduces ISGU compared with the control
"IGF-1: IGF-1, purified or in natural extracts; compound A",39,–

# — patent US6888016B2, “Mixtures for stimulating glucose up-take” (Loders Croklaan USA LLC, priority 2001, dated 2005)
